According to ChEMBL document CHEMBL5150017, “Mechanism of Action and Structure-Activity Relationship of α-Conotoxin Mr1.1 at the Human α9α10 Nicotinic Acetylcholine Receptor” (J Med Chem, 2022):
Activity calls are given as the source filed them. No cut-off for these calls is given here. Positions of bridges follow the written chain, without caps; N, C: chain ends. Non-standard residues stand in square brackets, D forms with d. Residues, ends and D or L forms follow the SMILES beside them. ξ: configuration not given here. ξDap = NCC(N)C(=O)O

Legend:
[1] = molecular target: T1, Neuronal acetylcholine receptor; alpha4/beta2 (Homo sapiens) (UniProt P17787+P43681); assay: Antagonist activity at human alpha4beta2 nAChR expressed in Xenopus laevis oocytes assessed as inhibition of ACh-induced current amplitude at -80 mV holding potential at 10 uM by two-electrode voltage clamp method; type: cell-based; details: Oocyte, filed as antagonist
[2] = molecular target: T1, Neuronal acetylcholine receptor; alpha4/beta2 (Homo sapiens); assay: Antagonist activity at human alpha4beta2 nAChR expressed in Xenopus laevis oocytes assessed as inhibition of ACh-induced current amplitude at -80 mV holding potential at 1 uM by two-electrode voltage clamp method; type: cell-based; details: Oocyte, filed as antagonist
[3] = molecular target: T2, Neuronal acetylcholine receptor; alpha3/beta4 (Homo sapiens) (UniProt P30926+P32297); assay: Antagonist activity at human alpha3beta4 nAChR expressed in Xenopus laevis oocytes assessed as inhibition of ACh-induced current amplitude at -80 mV holding potential at 10 uM by two-electrode voltage clamp method; type: cell-based; details: Oocyte, filed as antagonist
[4] = molecular target: T3, Neuronal acetylcholine receptor; alpha3/beta2 (Homo sapiens, UniProt P17787+P32297); assay: Antagonist activity at human alpha3beta2 nAChR expressed in Xenopus laevis oocytes assessed as inhibition of ACh-induced current amplitude at -80 mV holding potential at 10 uM by two-electrode voltage clamp method; type: cell-based; details: Oocyte, filed as antagonist
Oocyte = assay: Antagonist activity at rat alpha9alpha10 nAChR expressed in Xenopus laevis oocytes assessed as inhibition of ACh-induced current amplitude at 10 uM by two-electrode voltage clamp method; type: cell-based; details: filed as antagonist
[5] = molecular target: T4, Neuronal acetylcholine receptor subunit alpha-7 (Homo sapiens, UniProt P36544); assay: Antagonist activity at human alpha7 nAChR expressed in Xenopus laevis oocytes assessed as inhibition of ACh-induced current amplitude at -80 mV holding potential at 10 uM by two-electrode voltage clamp method; type: cell-based; details: Oocyte, filed as antagonist
[6] = molecular target: Neuronal acetylcholine receptor; alpha9/alpha10 (Homo sapiens, UniProt Q9GZZ6+Q9UGM1); assay: Antagonist activity at human alpha9alpha10 nAChR expressed in Xenopus laevis oocytes assessed as inhibition of ACh-induced current amplitude at -80 mV holding potential by two-electrode voltage clamp method; type: cell-based, Oocyte
[7] = molecular target: T5, Neuronal acetylcholine receptor; alpha9/alpha10 (Homo sapiens) (UniProt Q9UGM1+Q9GZZ6); assay: Antagonist activity at human alpha9alpha10 nAChR expressed in Xenopus laevis oocytes assessed as inhibition of ACh-induced current amplitude at -80 mV holding potential at 1 uM by two-electrode voltage clamp method; type: cell-based; details: Oocyte
[8] = molecular target: T2, Neuronal acetylcholine receptor; alpha3/beta4 (Homo sapiens); assay: Antagonist activity at human alpha3beta4 nAChR expressed in Xenopus laevis oocytes assessed as inhibition of ACh-induced current amplitude at -80 mV holding potential in presence of BAPTA-AM at 10 uM by two-electrode voltage clamp method; type: cell-based; details: Oocyte, filed as antagonist
[9] = molecular target: T3, Neuronal acetylcholine receptor; alpha3/beta2; assay: Antagonist activity at human alpha3beta2 nAChR expressed in Xenopus laevis oocytes assessed as inhibition of ACh-induced current amplitude at -80 mV holding potential by two-electrode voltage clamp method; type: cell-based, Oocyte
[10] = molecular target: T3, Neuronal acetylcholine receptor; alpha3/beta2; assay: Antagonist activity at human alpha3beta2 nAChR expressed in Xenopus laevis oocytes assessed as inhibition of ACh-induced current amplitude at -80 mV holding potential in presence of BAPTA-AM at 10 uM by two-electrode voltage clamp method; type: cell-based; details: Oocyte, filed as antagonist
[11] = molecular target: Neuronal acetylcholine receptor subunit alpha-7 (Rattus norvegicus) (UniProt Q05941); assay: Inhibition of rat neuronal alpha7 nAChR expressed in Xenopus laevis oocytes assessed as inhibition of ACh-induced current amplitude at 1 uM by two-electrode voltage clamp method; type: cell-based; details: Oocyte, filed as antagonist
[12] = molecular target: T2, Neuronal acetylcholine receptor; alpha3/beta4 (Homo sapiens); assay: Antagonist activity at human alpha3beta4 nAChR expressed in Xenopus laevis oocytes assessed as inhibition of ACh-induced current amplitude at -80 mV holding potential at 1 uM by two-electrode voltage clamp method; type: cell-based; details: Oocyte, filed as antagonist
[13] = molecular target: T3, Neuronal acetylcholine receptor; alpha3/beta2; assay: Antagonist activity at human alpha3beta2 nAChR expressed in Xenopus laevis oocytes assessed as inhibition of ACh-induced current amplitude at -80 mV holding potential at 1 uM by two-electrode voltage clamp method; type: cell-based; details: Oocyte
[14] = molecular target: T5, Neuronal acetylcholine receptor; alpha9/alpha10 (Homo sapiens); assay: Antagonist activity at human alpha9alpha10 nAChR expressed in Xenopus laevis oocytes assessed as inhibition of ACh-induced current amplitude at -80 mV holding potential at 10 uM by two-electrode voltage clamp method; type: cell-based; details: Oocyte, filed as antagonist
[15] = Antagonist activity at rat alpha9alpha10 nAChR expressed in Xenopus laevis oocytes assessed as inhibition of ACh-induced current amplitude by two-electrode voltage clamp method; type: cell-based; details: Oocyte
[16] = molecular target: T4, Neuronal acetylcholine receptor subunit alpha-7; assay: Antagonist activity at human alpha7 nAChR expressed in Xenopus laevis oocytes assessed as inhibition of ACh-induced current amplitude at -80 mV holding potential at 1 uM by two-electrode voltage clamp method; type: cell-based; details: Oocyte
[17] = molecular target: T5, Neuronal acetylcholine receptor; alpha9/alpha10 (Homo sapiens); assay: Antagonist activity at human alpha9alpha10 nAChR expressed in Xenopus laevis oocytes assessed as inhibition of ACh-induced current amplitude at -80 mV holding potential at 100 nM by two-electrode voltage clamp method; type: cell-based; details: Oocyte
Rattus norvegicus = species on record: Rattus norvegicus; assay: Analgesic activity in chronic constriction injury-induced mechanical pain rat model assessed as increase in paw withdrawal latency measured after 24 hrs; type: functional, organism-based; details: DDE = dose-dependent effect
[18] = molecular target: T1, Neuronal acetylcholine receptor; alpha4/beta2 (Homo sapiens); assay: Antagonist activity at human alpha4beta2 nAChR expressed in Xenopus laevis oocytes assessed as inhibition of ACh-induced current amplitude at -80 mV holding potential in presence of BAPTA-AM at 100 nM by two-electrode voltage clamp method; type: cell-based; details: Oocyte
Mus musculus [19] = assay: Analgesic activity in chronic constriction injury-induced mechanical pain mouse model assessed as increase in paw withdrawal latency at 25 ug/kg measured after 24 hrs; type: functional, organism-based; details: dose 25.0 µg/kg
[20] = Toxicity in mouse assessed as abnormal motor behavior; details: in vivo
[21] = molecular target: T3, Neuronal acetylcholine receptor; alpha3/beta2; assay: Antagonist activity at human alpha3beta2 nAChR expressed in Xenopus laevis oocytes assessed as inhibition of ACh-induced current amplitude at -80 mV holding potential at 100 nM by two-electrode voltage clamp method; type: cell-based; details: Oocyte, filed as antagonist
[22] = molecular target: T4, Neuronal acetylcholine receptor subunit alpha-7; assay: Antagonist activity at human alpha7 nAChR expressed in Xenopus laevis oocytes assessed as inhibition of ACh-induced current amplitude at -80 mV holding potential in presence of BAPTA-AM by two-electrode voltage clamp method; type: cell-based, Oocyte
[23] = molecular target: T4, Neuronal acetylcholine receptor subunit alpha-7; assay: Antagonist activity at human alpha7 nAChR expressed in Xenopus laevis oocytes assessed as inhibition of ACh-induced current amplitude at -80 mV holding potential at 100 nM by two-electrode voltage clamp method; type: cell-based; details: Oocyte, filed as antagonist
Mus musculus [24] = assay: Analgesic activity in chronic constriction injury-induced mechanical pain mouse model assessed as increase in paw withdrawal latency at 2.5 ug/kg measured after 12 hrs; type: functional, organism-based; details: dose 2.5 µg/kg
Mus musculus [25] = assay: Analgesic activity in chronic constriction injury-induced mechanical pain mouse model assessed as increase in paw withdrawal latency at 0.5 ug/kg measured after 12 hrs; type: functional, organism-based; details: dose 5.0 µg/kg
[26] = molecular target: T2, Neuronal acetylcholine receptor; alpha3/beta4 (Homo sapiens); assay: Antagonist activity at human alpha3beta4 nAChR expressed in Xenopus laevis oocytes assessed as inhibition of ACh-induced current amplitude at -80 mV holding potential at 100 nM by two-electrode voltage clamp method; type: cell-based; details: Oocyte
[27] = molecular target: T4, Neuronal acetylcholine receptor subunit alpha-7; assay: Antagonist activity at human alpha7 nAChR expressed in Xenopus laevis oocytes assessed as inhibition of ACh-induced current amplitude at -80 mV holding potential by two-electrode voltage clamp method; type: cell-based, Oocyte

T4 sequence (P36544 whole entry): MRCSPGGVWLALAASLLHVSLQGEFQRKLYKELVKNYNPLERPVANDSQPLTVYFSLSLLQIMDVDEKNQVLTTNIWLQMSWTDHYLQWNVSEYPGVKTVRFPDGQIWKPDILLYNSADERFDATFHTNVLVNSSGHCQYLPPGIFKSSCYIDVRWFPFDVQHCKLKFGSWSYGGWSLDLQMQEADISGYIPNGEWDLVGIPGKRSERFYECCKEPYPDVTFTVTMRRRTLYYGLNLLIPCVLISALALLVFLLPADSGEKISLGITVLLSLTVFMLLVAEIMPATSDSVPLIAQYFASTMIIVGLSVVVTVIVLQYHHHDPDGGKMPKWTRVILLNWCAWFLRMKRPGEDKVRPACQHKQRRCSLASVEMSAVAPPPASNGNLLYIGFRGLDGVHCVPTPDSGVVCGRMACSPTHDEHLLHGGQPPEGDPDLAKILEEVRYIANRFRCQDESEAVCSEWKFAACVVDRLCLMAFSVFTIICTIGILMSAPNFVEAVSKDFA
Neuronal acetylcholine receptor; alpha9/alpha10, sequence (Q9UGM1 whole entry): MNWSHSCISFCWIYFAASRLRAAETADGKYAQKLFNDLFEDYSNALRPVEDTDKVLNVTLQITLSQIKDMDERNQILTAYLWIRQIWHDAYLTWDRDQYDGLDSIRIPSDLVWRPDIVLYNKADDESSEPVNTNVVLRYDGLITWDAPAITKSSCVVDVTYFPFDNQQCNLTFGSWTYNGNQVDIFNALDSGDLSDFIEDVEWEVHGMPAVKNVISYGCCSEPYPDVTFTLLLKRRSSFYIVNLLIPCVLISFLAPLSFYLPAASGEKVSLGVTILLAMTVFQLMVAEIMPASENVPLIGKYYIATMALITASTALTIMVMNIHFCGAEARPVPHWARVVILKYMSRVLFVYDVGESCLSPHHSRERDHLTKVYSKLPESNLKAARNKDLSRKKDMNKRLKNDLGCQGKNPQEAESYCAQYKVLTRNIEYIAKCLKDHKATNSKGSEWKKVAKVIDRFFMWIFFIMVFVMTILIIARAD
Neuronal acetylcholine receptor; alpha9/alpha10, sequence (Q9GZZ6 whole entry): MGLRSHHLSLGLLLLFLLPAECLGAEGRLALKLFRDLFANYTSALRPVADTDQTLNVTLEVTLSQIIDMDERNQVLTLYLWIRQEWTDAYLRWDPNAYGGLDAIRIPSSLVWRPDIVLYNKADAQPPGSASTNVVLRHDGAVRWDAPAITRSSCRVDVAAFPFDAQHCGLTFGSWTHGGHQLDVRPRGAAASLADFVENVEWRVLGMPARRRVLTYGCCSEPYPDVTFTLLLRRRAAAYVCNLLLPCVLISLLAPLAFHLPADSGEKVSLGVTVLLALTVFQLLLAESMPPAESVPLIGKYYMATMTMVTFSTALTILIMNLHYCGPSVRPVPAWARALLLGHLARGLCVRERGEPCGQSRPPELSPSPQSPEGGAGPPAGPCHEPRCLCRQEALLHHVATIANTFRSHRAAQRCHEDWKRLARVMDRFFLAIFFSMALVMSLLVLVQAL
T3 sequence (P17787 whole entry): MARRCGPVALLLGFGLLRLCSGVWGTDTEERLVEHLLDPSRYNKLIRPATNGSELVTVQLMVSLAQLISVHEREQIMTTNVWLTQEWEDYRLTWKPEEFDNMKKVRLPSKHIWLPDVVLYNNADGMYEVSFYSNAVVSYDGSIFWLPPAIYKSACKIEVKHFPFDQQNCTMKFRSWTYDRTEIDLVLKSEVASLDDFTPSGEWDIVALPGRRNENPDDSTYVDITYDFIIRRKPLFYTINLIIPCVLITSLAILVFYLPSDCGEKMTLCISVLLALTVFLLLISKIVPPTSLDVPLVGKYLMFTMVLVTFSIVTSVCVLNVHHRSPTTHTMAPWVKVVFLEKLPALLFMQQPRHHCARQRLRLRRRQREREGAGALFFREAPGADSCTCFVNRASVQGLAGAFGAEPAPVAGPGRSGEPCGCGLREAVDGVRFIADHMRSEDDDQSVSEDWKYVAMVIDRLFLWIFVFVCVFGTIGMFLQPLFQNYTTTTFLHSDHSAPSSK
T3 sequence (P32297 whole entry): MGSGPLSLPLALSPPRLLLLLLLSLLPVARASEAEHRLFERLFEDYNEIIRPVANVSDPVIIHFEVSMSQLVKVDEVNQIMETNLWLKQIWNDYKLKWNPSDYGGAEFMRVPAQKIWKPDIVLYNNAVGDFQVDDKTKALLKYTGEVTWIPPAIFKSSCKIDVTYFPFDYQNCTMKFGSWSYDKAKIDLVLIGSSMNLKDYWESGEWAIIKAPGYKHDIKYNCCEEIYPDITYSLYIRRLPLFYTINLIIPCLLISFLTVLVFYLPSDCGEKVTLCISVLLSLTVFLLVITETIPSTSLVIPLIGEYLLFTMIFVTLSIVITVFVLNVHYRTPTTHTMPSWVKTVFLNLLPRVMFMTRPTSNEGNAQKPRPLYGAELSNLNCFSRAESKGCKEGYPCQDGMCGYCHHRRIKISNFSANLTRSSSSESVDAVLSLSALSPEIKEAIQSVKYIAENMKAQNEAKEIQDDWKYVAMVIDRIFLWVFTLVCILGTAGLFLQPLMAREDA
Neuronal acetylcholine receptor subunit alpha-7 (Rattus norvegicus), sequence (Q05941 whole entry): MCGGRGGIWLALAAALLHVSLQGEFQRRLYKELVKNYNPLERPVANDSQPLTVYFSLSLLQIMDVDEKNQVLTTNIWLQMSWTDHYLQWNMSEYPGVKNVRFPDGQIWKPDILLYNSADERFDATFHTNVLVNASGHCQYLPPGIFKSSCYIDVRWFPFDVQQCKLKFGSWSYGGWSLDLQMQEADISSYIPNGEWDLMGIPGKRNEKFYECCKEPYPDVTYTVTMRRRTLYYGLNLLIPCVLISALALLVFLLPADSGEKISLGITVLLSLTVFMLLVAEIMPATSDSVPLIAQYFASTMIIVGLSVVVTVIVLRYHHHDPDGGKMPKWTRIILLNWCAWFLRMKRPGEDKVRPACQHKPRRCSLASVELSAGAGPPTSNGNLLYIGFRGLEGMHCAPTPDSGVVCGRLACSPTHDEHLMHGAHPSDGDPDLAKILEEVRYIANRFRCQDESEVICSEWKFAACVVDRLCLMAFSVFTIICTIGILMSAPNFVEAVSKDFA

CC[C@H](C)[C@@H]1NC(=O)[C@H](CC(=O)O)NC(=O)[C@@H]2CCCN2C(=O)[C@H](CC(N)=O)NC(=O)[C@H](CC(N)=O)NC(=O)[C@H](C(C)C)NC(=O)[C@H](CO)NC(=O)[C@@H]2CSSC[C@H](NC(=O)CN)C(=O)N[C@@H](CSSC[C@@H](C(N)=O)NC1=O)C(=O)N[C@@H](CO)C(=O)N[C@@H](Cc1cnc[nH]1)C(=O)N1CCC[C@H]1C(=O)N[C@@H](C)C(=O)N2 (H-GCCSHPACSVNNPDIC-NH2; disulfide 2-8, 3-16)
inhibition [1]: 40%
inhibition [2]: Active
inhibition [3]: > 90%
inhibition [4]: > 90%
inhibition (Oocyte): 100%
inhibition [5]: 80%
IC50 [6]: 92 nM
inhibition ([7]; filed as antagonist): 95%
inhibition [8]: 50%
IC50 [9]: 219 nM
inhibition [10]: 50%
inhibition [11]: 65%
inhibition [12]: 60%
inhibition [13]: 90%
inhibition [14]: > 90%
IC50 [15]: 8.3 nM
inhibition [16]: 25%

CC[C@H](C)[C@@H]1NC(=O)[C@H](CCC(=O)O)NC(=O)[C@@H]2CCCN2C(=O)[C@H](CC(N)=O)NC(=O)[C@H](CC(N)=O)NC(=O)[C@H](C(C)C)NC(=O)[C@H](CO)NC(=O)[C@@H]2CSSC[C@H](NC(=O)CN)C(=O)N[C@@H](CSSC[C@@H](C(N)=O)NC1=O)C(=O)N[C@@H](CO)C(=O)N[C@@H](Cc1cnc[nH]1)C(=O)N1CCC[C@H]1C(=O)N[C@@H](C)C(=O)N2 (H-GCCSHPACSVNNPEIC-NH2; disulfide 2-8, 3-16)
inhibition [7]: 20%
inhibition ([7]; filed as antagonist): 40%

CC[C@H](C)[C@@H]1NC(=O)[C@H](CC(=O)O)NC(=O)[C@@H]2CCCN2C(=O)[C@H](CC(N)=O)NC(=O)[C@H](CC(N)=O)NC(=O)[C@H](Cc2ccc(O)cc2)NC(=O)[C@H](CO)NC(=O)[C@@H]2CSSC[C@H](NC(=O)CN)C(=O)N[C@@H](CSSC[C@@H](C(N)=O)NC1=O)C(=O)N[C@@H](CO)C(=O)N[C@@H](Cc1cnc[nH]1)C(=O)N1CCC[C@H]1C(=O)N[C@@H](C)C(=O)N2 (H-GCCSHPACSYNNPDIC-NH2; disulfide 2-8, 3-16)
inhibition [17]: 25%
inhibition [7]: 20%

CC[C@H](C)[C@@H]1NC(=O)[C@H](CC(=O)O)NC(=O)[C@@H]2CCCN2C(=O)[C@H](CC(N)=O)NC(=O)[C@H](CC(N)=O)NC(=O)[C@H](C(C)C)NC(=O)[C@H](CO)NC(=O)[C@@H]2CSSC[C@H](NC(=O)CN)C(=O)N[C@@H](CSSC[C@@H](C(N)=O)NC1=O)C(=O)NC(CN)C(=O)N[C@@H](Cc1cnc[nH]1)C(=O)N1CCC[C@H]1C(=O)N[C@@H](C)C(=O)N2 (stereo partly drawn) (H-GCC[ξDap]HPACSVNNPDIC-NH2; disulfide 2-8, 3-16)
Activity (Rattus norvegicus): Dde
inhibition ([17]; filed as antagonist): > 85%
inhibition [18]: 5%
Activity (Mus musculus [19]): Active
Activity [20]: Non-Toxic
inhibition [21]: 85%
IC50 [6]: 4 nM
IC50 [9]: 20.6 nM
IC50 [22]: 265 nM
inhibition ([13]; filed as antagonist): > 95%
inhibition [23]: 90%
Activity (Mus musculus [24]): Active
Activity (Mus musculus [25]): Active
inhibition [26]: 5%
IC50 [15]: 1.7 nM
IC50 [27]: 259 nM

CC[C@H](C)[C@@H]1NC(=O)[C@H](CC(=O)O)NC(=O)[C@@H]2CCCN2C(=O)[C@H](CC(N)=O)NC(=O)[C@H](CC(N)=O)NC(=O)[C@H](C(C)C)NC(=O)C(CN)NC(=O)[C@@H]2CSSC[C@H](NC(=O)CN)C(=O)N[C@@H](CSSC[C@@H](C(N)=O)NC1=O)C(=O)NC(CN)C(=O)N[C@@H](Cc1cnc[nH]1)C(=O)N1CCC[C@H]1C(=O)N[C@@H](C)C(=O)N2 (stereo partly drawn) (H-GCC[ξDap]HPAC[ξDap]VNNPDIC-NH2; disulfide 2-8, 3-16)
inhibition ([17]; filed as antagonist): > 95%
